Experimental data published in patent publication US20100284984A1, “ADENOSINE AND ITS MIMETICS. MODULATORS, TRANSPORT INHIBITORS, AND RECEPTOR AGONISTS AS A THERAPEUTIC TOOL TO REPLACE OR IMPROVE THE EFFICACY OF DEEP BRAIN STIMULATION” (University of Rochester, priority 2007, published 2010).
“Also recorded” adds a separate entry of the source. Where a name gives a salt, the structure may show the parent alone. Read-outs that look alike come from different tables or passages of the source.

Experiments:
Rat Parotid Ecto-ATPase = settings: Dowd et al.; cited from earlier work
[1] = target: S-adenosylhomocysteine hydrolase (Homo sapiens, UniProt P23526); settings: cited from earlier work
adenosine transport = settings: cited from earlier work; for Ki: adenosine transport inhibitors
thalamic neurons [2] = assay: HFS-induced membrane depolarization of thalamic neurons; assay type: cell-based, mouse; settings: thalamic slices during HFS
thalamic neurons [3] = assay: HFS-induced depression of eEPSPs in thalamic slices, pharmacology; assay type: cell-based, mouse; settings: 50 μM; HFS 250 μA, 100 μs, 5 sec, 20° C.
adenosine kinase = adenosine kinase (Homo sapiens, UniProt P55263); settings: cited from earlier work
thalamic neurons [4] = assay: Drug effect on evoked EPSPs (eEPSP) in thalamic slices, current clamp; assay type: cell-based, mouse
Experimental: Thalamic slices (300 μm) from 14-18 day old mouse pups (FVB/NJ mice; Jackson Laboratory) were cut on a Vibratome (TPI) in an ice-cold cutting solution containing (in mM): 2.5 KCl, 1.25 NaH2PO4, 10 MgSO4, 5 CaCl2, 10 glucose, 26 NaHCO3, 230 sucrose and gassed with 5% CO2 and 95% O2. Slices were incubated for a minimum of 1 hr in a slice solution containing (in mM): 126 NaCl, 2.5 KCl, 1.25 NaH2PO4, 2 MgCl2, 2 CaCl2, 10 glucose, and 26 NaHCO3, pH 7.4, and gassed with 5% CO2 and 95% O2 at room temperature. The slices were transferred to a recording chamber (1.5 ml) perfused with aCSF at room temperature or 32° C. Whole-cell current clamp recordings were obtained using a 700B Multiclamp amplifier (Axon Instruments) (Jiang et al., “A Kainate Receptor Increases The Efficacy of Gabaergic Synapses,” Neuron 30:503-13 (2001); Tian et al., “An Astrocytic Basis of Epilepsy,” Nat Med 11:973-81 (2005), which are hereby incorporated by reference in their entirety). Concentric bipolar stimulating electrodes (FHC) were placed ˜100-400 μm ventromedial to the patched VL thalamic neuron. Stimulation was delivered through a constant isolated current source (ISO-Flex stimulus isolator with a Master-8-vp stimulator; AMPI) and consisted of monophasic 60 μs square pulses of varying amplitude (15, 25, 50 μA) and frequency (25, 75, 125, 200 Hz). Based upon maximum current amplitude and the surface area of the electrode, it is estimated that the maximum charge density was in the range of ˜1-10 μC/cm^2. The artifacts of the HFS signal were blanked and staggered to allow continuous observation of the 2.5 Hz signal (Anderson et al., “Selective Attenuation of Afferent Synaptic Transmission as a Mechanism of Thalamic Deep Brain Stimulation-Induced Tremor Arrest,” J Neurosci 26:841-50 (2006), which is hereby incorporated by reference in its entirety). Adenosine measurements were detected using needle shaped electrode (Pt/Ir wire) biosensors (Sarissa Biomedical). Calibration was carried out at the beginning and end of each slice experiment in the bath above the slice. Measurements were obtained ˜100 μm from the stimulation electrode in the thalamic slice. […].
To further analyze the role of adenosine in HFS, the effect of perfusion with an aCSF containing 1-100 μM adenosine in thalamic slices was studied. […]. […] The AMPA receptor antagonist, CNQX could not be tested due to its direct effect on EPSCs (Wang et al., “Astrocytic Ca(2+) Signaling Evoked by Sensory Stimulation in Vivo,” Nat Neurosci 9:816-23 (2006), which is hereby incorporated by reference in its entirety) (FIG. 3G). […]. […]

harmaline-induced tremor = assay: Harmaline-induced tremor, intrathalamic delivery by bilateral microdialysis probes; assay type: in vivo, mice; settings: for tremor activity: thalamus; for tremor following washout: after cessation of microdialysis of agonist; for time course of depression of tremor: microdialysis perfusion
Experimental: Harmaline was administed i.p. 20 min prior to DBS (20-30 mg/kg) (Wilms et al., “Animal Models of Tremor,” Mov Disord 14:557-71 (1999); Martin et al., “Harmaline-Induced Tremor as a Potential Preclinical Screening Method for Essential Tremor Medications,” Mov Disord 20:298-305 (2005), which are hereby incorporated by reference in their entirety). 6-OHDA (3 μg/μl in saline containing 0.1% ascorbic acid) was injected in the right median forebrain bundle (AP: −1.2 mm; ML: ±1.1 mm; DV: −5.0 mm in a volume of 2 μl) (Jolicoeur et al., “Hypokinesia, Rigidity, and Tremor Induced by Hypothalamic 6-OHDA Lesions in The Rat,” Brain Res Bull 26:317-20 (1991), which are hereby incorporated by reference in their entirety) in mice anaesthetized with urethane (1.6 g/kg). Only animals that developed body tremor were included in the study. Tacrine was administered in a dose of 2.5 mg/kg i.p. and induced a robust jaw response with the peak frequency within the 3-5 Hz range (Cousins et al., “Tremulous Jaw Movements Induced by The Acetylcholinesterase Inhibitor Tacrine: Effects of Antiparkinsonian Drugs,” Eur J Pharmacol 322:137-45 (1997), which is hereby incorporated by reference in its entirety). […] For electrode and microdialysis implantation, mice were anaesthetized with a mixture of Ketamine (60 mg/kg) and Xylazine (10 mg/kg) and placed into a stereotactic frame. The skull was exposed and concentric bipolar microelectrodes (SNE-100, KOPF) or microdialysis probes (Bioanalytical Systems, Inc.) were implanted into the ventrolateral thalamic nucleus at the following coordinates: AP: −1.4 mm; ML: ±0.9 mm; DV: −3.7 mm. The electrodes or microdialysis probes were attached to the skull with dental cement. Following 24 hrs recovery, stimulation was delivered through a constant isolated current source (An ISO-Flex stimulus isolator with a Master-8-vp stimulator; AMPI) and consisted of monophasic 60 μs square pulses of varying amplitude (15, 25, 50 μA) and frequency (25, 75, 125, 200 Hz). The electrodes implanted in tremor patients has 4 contacts with a total surface area of 0.24 cm^2, an impedance ˜500 Ohm, and an upper limit of 30 μC/cm^2 in charge density (Kuncel et al., “Selection of Stimulus Parameters for Deep Brain Stimulation,” Clin Neurophysiol 115:2431-41 (2004), which is hereby incorporated by reference in its entirety). In mice, electrodes with a smaller tip (diameter 0.0055-0.250 mm, surface area 0.001-0.05 mm^2) were used and the current amplitude was adjusted to obtain charge density within the clinical range. Microdialysis probes were perfused 24 hrs after implantation using a microinjection pump (Harvard Apparatus Inc. USA) at a rate of 2 μl/min. The perfusion buffer contained (in mM): 138 NaCl, 1.5 K2HPO4, 2 CaCl2, 2 MgCl2, 10 HEPES, pH 7.3. […]. Tremor was recorded by either EMG electrodes placed in the occipital muscles or by the Convuls-1 pressure transducer (Columbus Instruments) in awake freely moving animals. […]. The mice were perfusion-fixed and sectioned on a vibratome (TPI) for confirmation of electrode or microdialysis probe placements.
[…]. Microdialysis probes were inserted bilaterally in thalamus 24-48 hrs prior to administration of harmaline. […].

Ecto-ATPase [5] = settings: Yegutkin et al., rat liver plasma membranes; cited from earlier work
Ecto-ATPase [6] = settings: Chen et al., endothelial cells; cited from earlier work
[7] = target: Nucleoside Triphosphate Diphosphohydrolases; settings: Gendron et al.; cited from earlier work

Chain of S-adenosylhomocysteine hydrolase (P23526 whole entry): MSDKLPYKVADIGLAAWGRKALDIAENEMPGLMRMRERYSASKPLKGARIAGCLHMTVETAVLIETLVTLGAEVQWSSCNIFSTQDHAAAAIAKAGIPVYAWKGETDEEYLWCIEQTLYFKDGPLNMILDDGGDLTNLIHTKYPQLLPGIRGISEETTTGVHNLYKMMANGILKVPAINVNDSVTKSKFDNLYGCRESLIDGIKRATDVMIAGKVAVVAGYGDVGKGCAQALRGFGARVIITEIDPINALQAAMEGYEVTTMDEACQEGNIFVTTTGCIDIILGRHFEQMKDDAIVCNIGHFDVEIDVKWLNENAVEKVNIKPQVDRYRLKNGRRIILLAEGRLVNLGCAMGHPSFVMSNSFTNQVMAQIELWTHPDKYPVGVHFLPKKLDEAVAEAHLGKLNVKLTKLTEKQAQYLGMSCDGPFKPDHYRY
Chain of adenosine kinase (P55263 whole entry, species assumed): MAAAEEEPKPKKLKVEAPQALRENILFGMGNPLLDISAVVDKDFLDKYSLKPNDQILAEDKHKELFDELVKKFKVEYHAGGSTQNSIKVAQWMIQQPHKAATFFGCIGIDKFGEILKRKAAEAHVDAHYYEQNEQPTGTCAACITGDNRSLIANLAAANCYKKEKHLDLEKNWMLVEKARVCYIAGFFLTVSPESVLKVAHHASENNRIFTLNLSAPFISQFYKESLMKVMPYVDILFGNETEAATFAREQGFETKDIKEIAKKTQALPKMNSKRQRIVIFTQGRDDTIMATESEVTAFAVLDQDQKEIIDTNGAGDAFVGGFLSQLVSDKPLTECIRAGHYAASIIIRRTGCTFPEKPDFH

## O=S(=O)(O)c1cc(N=C=S)ccc1C=Cc1ccc(N=C=S)cc1S(=O)(=O)O [DIDS, 4,4′diisothiocyanatostilbene-2,2′disulphonec acid]
Rat Parotid Ecto-ATPase
  IC50: 150000 nM

## Nc1ncnc2c1ncn2[C@@H]1O/C(=C\F)[C@@H](O)[C@H]1O [ZDDFA, (Z)-4′,5′-didehydro-5′-deoxy-5′-fluoroadenosine]
[1]
  Ki: 39.9 nM

## CCCn1cnc2c1c(=O)n(CCCCC(C)=O)c(=O)n2C [Propentofylline]
Adenosine transport
  Ki: 10000 to 100000 nM

## Cc1cccc(C)c1NC(=O)CN1CCN(CCCC(c2ccc(F)cc2)c2ccc(F)cc2)CC1 [lidoflazine]
Adenosine transport; unit inferred
  Ki: 100 nM

## N[C@@H](CCCP(=O)(O)O)C(=O)O [APV]
Thalamic neurons [2]
  HFS-induced change of neuronal membrane potential (depolarization / hyperpolarization): 18.15±6.69 mV
Thalamic neurons [3]
  effect on HFS-induced depression of eEPSPs (FIG. 3G): no significant effect

## Nc1ncnc2c1c(I)cn2[C@@H]1C[C@H](N)[C@@H](O)[C@H]1O [A-134974]
Adenosine kinase; McGaraughty et al.
  IC50: 0.06 nM

## OC[C@H]1O[C@@H](n2cnc3c(NC4CCCC4)nc(Cl)nc32)[C@H](O)[C@@H]1O [CCPA, 2-chloro-N6-cyclopentyladenosine]
Thalamic neurons [4]; 1.0 μM
  depression of eEPSPs: 75.59±4.98%
harmaline-induced tremor; CCPA 10-100 μM in microdialysis perfusate
  tremor activity: attenuated; also recorded: reduced tremor activity with a potency comparable to DBS
harmaline-induced tremor
  tremor following washout: rebound effect was often observed
  time course of depression of tremor: developed slowly over minutes

## reactive blue
Ecto-ATPase [5]
  pIC 50: 4.3
Rat Parotid Ecto-ATPase
  IC50: 28000 nM

## Cc1ncc2n1-c1ccc(Cl)cc1C(c1ccccc1F)=NC2 [midazolam]
Adenosine transport; unit inferred
  Ki: 1000 nM

## Nc1ncnc2c1ncn2[C@@H]1O[C@H](CO[P@](=O)(O)O[P@](=O)(O)O[P@@](=O)(O)S)[C@@H](O)[C@H]1O [ATPyS]
Ecto-ATPase [6]
  pIC 50: 5.2

## N#Cc1cc2[nH]c(=O)c(=O)[nH]c2cc1[N+](=O)[O-] [CNQX]
Thalamic neurons [2]
  HFS-induced change of neuronal membrane potential (depolarization / hyperpolarization): 15.91±4.53 mV

## CCOc1cc2nc(N3CCOCC3)nc(N3CCC(n4c(=O)c5cc(C)ccc5n(C)c4=O)CC3)c2cc1OCC [KF 24345, 3-[1-(6,7-diethoxy-2-morpholinoquinazolin-4-yl)piperidin-4-yl]-1,6-dimethyl-2,4(1H,3H)-quinazolinedione hydrochloride]
Adenosine transport
  Ki: 0.1 to 1 nM

## CCOc1ccc(Nc2ccc(C(=C3C=CC(=[N+](CC)Cc4cccc(S(=O)(=O)[O-])c4)C=C3)c3ccc(N(CC)Cc4cccc(S(=O)(=O)O)c4)cc3)cc2)cc1 [Coomassie brilliant blue R]
Rat Parotid Ecto-ATPase
  IC50: 114000 nM

## 3-deaza-DEA methylester [C3-OMeDEA]
[1]; read-out: Ki
  Ki: 1500 nM

## Nc1ncnc2c1c(Br)cn2C1CC(N)C(O)C1O (stereo not drawn) [A-286501, N7-((1′R,2′S,3′R,4′S)-2′,3′-dihydroxy-4′-amino-cyclopentyl)-4-amino-5-bromo-pyrrolo[2,3-a]pyrimidine]
Adenosine kinase
  IC50: 0.47 nM

## Nc1nccc2c1ncn2C[C@@H](O)[C@@H](O)C(=O)O [C3-DEA, 3-deaza-DEA]
[1]; read-out: Ki
  Ki: 1500 nM

## Nc1ncnc2c1ncn2[C@@H]1O[C@H](COP(=O)(O)CP(=O)(O)OP(=O)(O)O)[C@@H](O)[C@H]1O [α,β-MeATP]
Ecto-ATPase [6]
  pIC 50: 4.5

## Nc1ncnc2c1ncn2[C@@H]1O[C@H](CO)[C@@H](O)[C@H]1O [adenosine]
Thalamic neurons [4]; Mus musculus, Neuron, aCSF containing 1-100 μM adenosine, read-out: ED50 for depression of eEPSP amplitude
  EC50: 3350 ± 750 nM
Thalamic neurons [4]; aCSF containing 1-100 μM adenosine
  maximal reduction of eEPSP amplitude: 76.13±6.47 % of control values
harmaline-induced tremor; adenosine 1-10 mM in microdialysis perfusate
  tremor activity: reduced tremor activity with a potency comparable to DBS
harmaline-induced tremor
  tremor following washout: rebound effect was often observed
  time course of depression of tremor: developed slowly over minutes

## COC(=O)C(O)CCn1cnc2c(N)ncnc21 (centres unmarked) [DZ2002, methyl 4-(adenine-9-yl)-2-hydroxybutanoate]
[1]; read-out: Ki
  Ki: 17.9 nM

## O=C1CCc2cc(OCCCCc3nnnn3C3CCCCC3)ccc2N1 [cilostazol]
Adenosine transport; adenosine uptake (Liu et al.)
  IC50: 10000 nM

## Nc1ncnc2c1ncn2C[C@@H](O)[C@@H](O)C(=O)O [DEA, eritadenine[2(R),3(R)-dihydroxy-4-(9-zdenyl)-butyric acid]]
[1]
  Ki: 30 nM

## 8-CH2BuS-ATP
[7]
  Ki: 45000 nM

## CCCCSc1nc2c(N)ncnc2n1[C@@H]1O[C@H](COP(=O)(O)OP(=O)(O)OP(=O)(O)O)[C@@H](O)[C@H]1O [8-Bus-ATP]
[7]
  Ki: 10000 nM

## Nc1ncnc2c1ncn2[C@@H]1O[C@H](COP(=O)(O)OP(=O)(O)NP(=O)(O)O)[C@@H](O)[C@H]1O [AMP-PNP]
Ecto-ATPase [6]
  pIC 50: 4.0

## NC(=O)C1CN(CC(=O)Nc2c(Cl)cccc2Cl)CCN1CCCC(c1ccc(F)cc1)c1ccc(F)cc1 (centres unmarked) [mioflazine]
Adenosine transport; unit inferred
  Ki: 10 nM

## COc1cc(C(=O)OCCCN2CCCN(CCCOC(=O)c3cc(OC)c(OC)c(OC)c3)CC2)cc(OC)c1OC [dilazep]
Adenosine transport
  Ki: 0.1 to 1 nM
